The supplement of paper PMC13380429

Legend:
Caco-2 [1] = assay: relative viability EC50 (midpoint between 100% and the lowest measured viability); higher = less toxic; details: 72 h
Vero E6 [2] = assay: as above; details: 72 h
U2OS [3] = assay: as above; details: 72 h
Calu-3 [4] = assay: as above; details: 72 h
Caco-2 [5] = assay: drug sensitivity score (DSS) for viability; higher = more toxic; extreme values may be limits of the assay; details: 72 h
Vero E6 [6] = assay: as above; details: 72 h
U2OS [7] = assay: as above; details: 72 h
HepG2 [8] = assay: as above; details: 72 h
Calu-3 [9] = assay: as above; details: 72 h
[10] = system: A549-ACE2 infected with SARS-CoV-2; assay: SARS-CoV-2 infection rate relative to DMSO; higher = more infection; details: 24 h
A549-ACE2 = assay: drug-induced phospholipidosis relative to tamoxifen; higher = more phospholipidosis
[11] = system: A549-ACE2 infected with SARS-CoV-2; assay: cell count relative to DMSO; higher = less toxic; details: 24 h
[12] = system: A549-ACE2 infected with SARS-CoV-2; assay: morphology score (similarity to uninfected cells); higher = more like uninfected cells; details: 24 h
Caco-2 [13] = assay: cell viability relative to DMSO; higher = less toxic; details: 72 h
Vero E6 [14] = assay: as above; details: 72 h
U2OS [15] = assay: as above; details: 72 h
HepG2 [16] = assay: as above; details: 72 h
Calu-3 [17] = assay: as above; details: 72 h

O=C(Nc1ccc(-c2ccnc(Nc3ccc(N4CCOCC4)cc3)n2)cc1)C1CCCN1 (stereo not drawn) [XL019]
relative viability EC50 (Caco-2 [1]): > 10 µM | relative viability EC50 (Vero E6 [2]): > 10 µM | relative viability EC50 (U2OS [3]): > 10 µM | relative viability EC50 (Calu-3 [4]): > 10 µM | drug sensitivity score (Caco-2 [5]): 0 | drug sensitivity score (Vero E6 [6]): 0 | drug sensitivity score (U2OS [7]): 0 | drug sensitivity score (HepG2 [8]): 2.8 | drug sensitivity score (Calu-3 [9]): 0 | SARS-CoV-2 infection rate ([10]; 0.3 µM): 100% | SARS-CoV-2 infection rate ([10]; 3 µM): 101% | SARS-CoV-2 infection rate ([10]; 10 µM): 86% | SARS-CoV-2 infection rate ([10]; 30 µM): 46% | drug-induced phospholipidosis (A549-ACE2; 0.3 µM, 24 h): -0.79% | drug-induced phospholipidosis (A549-ACE2; 0.3 µM, 48 h): 3.03% | drug-induced phospholipidosis (A549-ACE2; 0.3 µM, 72 h): 5.53% | drug-induced phospholipidosis (A549-ACE2; 0.833333 µM, 24 h): -8.22% | drug-induced phospholipidosis (A549-ACE2; 0.833333 µM, 48 h): -8.76% | drug-induced phospholipidosis (A549-ACE2; 0.833333 µM, 72 h): -8.19% | drug-induced phospholipidosis (A549-ACE2; 3.33333 µM, 24 h): -5.43% | drug-induced phospholipidosis (A549-ACE2; 3.33333 µM, 48 h): -8.92% | drug-induced phospholipidosis (A549-ACE2; 3.33333 µM, 72 h): -8.71% | drug-induced phospholipidosis (A549-ACE2; 6.66667 µM, 24 h): 0.07% | drug-induced phospholipidosis (A549-ACE2; 6.66667 µM, 48 h): -8.57% | drug-induced phospholipidosis (A549-ACE2; 6.66667 µM, 72 h): -9.82% | drug-induced phospholipidosis (A549-ACE2; 10 µM, 24 h): 5.79% | drug-induced phospholipidosis (A549-ACE2; 10 µM, 48 h): -5.17% | drug-induced phospholipidosis (A549-ACE2; 10 µM, 72 h): -6.36% | drug-induced phospholipidosis (A549-ACE2; 30 µM, 24 h): 96.9% | drug-induced phospholipidosis (A549-ACE2; 30 µM, 48 h): 83.3% | cell count ([11]; 0.3 µM): 98% | cell count ([11]; 3 µM): 99% | cell count ([11]; 10 µM): 109% | cell count ([11]; 30 µM): 109% | morphology score ([12]; 0.3 µM): 0.04 | morphology score ([12]; 3 µM): -0.09 | morphology score ([12]; 10 µM): 0.26 | morphology score ([12]; 30 µM): 0.33 | cell viability (Caco-2 [13]; 1 nM): 89.4% | cell viability (Caco-2 [13]; 10 nM): 99.2% | cell viability (Caco-2 [13]; 100 nM): 98.7% | cell viability (Caco-2 [13]; 1000 nM): 94.2% | cell viability (Caco-2 [13]; 10000 nM): 86.5% | cell viability (Vero E6 [14]; 1 nM): 102% | cell viability (Vero E6 [14]; 10 nM): 102% | cell viability (Vero E6 [14]; 100 nM): 98.5% | cell viability (Vero E6 [14]; 1000 nM): 94.5% | cell viability (Vero E6 [14]; 10000 nM): 94.6% | cell viability (U2OS [15]; 1 nM): 97.9% | cell viability (U2OS [15]; 10 nM): 97.5% | cell viability (U2OS [15]; 100 nM): 98% | cell viability (U2OS [15]; 1000 nM): 96.5% | cell viability (U2OS [15]; 10000 nM): 90.6% | cell viability (HepG2 [16]; 1 nM): 95.1% | cell viability (HepG2 [16]; 10 nM): 96.3% | cell viability (HepG2 [16]; 100 nM): 89.9% | cell viability (HepG2 [16]; 1000 nM): 88.1% | cell viability (HepG2 [16]; 10000 nM): 67.5% | cell viability (Calu-3 [17]; 1 nM): 109% | cell viability (Calu-3 [17]; 10 nM): 98% | cell viability (Calu-3 [17]; 100 nM): 107% | cell viability (Calu-3 [17]; 1000 nM): 122% | cell viability (Calu-3 [17]; 10000 nM): 119%

C=C1C(=O)O[C@@H]2[C@H]3C(C)=CC[C@@]34O[C@@]4(C)CC[C@@H]12 [arglabin]
relative viability EC50 (Vero E6 [2]): > 10 µM | relative viability EC50 (U2OS [3]): > 10 µM | drug sensitivity score (Caco-2 [5]): 1.8 | drug sensitivity score (Vero E6 [6]): 0 | drug sensitivity score (U2OS [7]): 0.6 | drug sensitivity score (HepG2 [8]): 2.5 | drug sensitivity score (Calu-3 [9]): 1.2 | SARS-CoV-2 infection rate ([10]; 0.3 µM): 105% | SARS-CoV-2 infection rate ([10]; 3 µM): 94% | SARS-CoV-2 infection rate ([10]; 10 µM): 95% | SARS-CoV-2 infection rate ([10]; 30 µM): 33% | drug-induced phospholipidosis (A549-ACE2; 0.3 µM, 24 h): 2.94% | drug-induced phospholipidosis (A549-ACE2; 0.3 µM, 48 h): 2.9% | drug-induced phospholipidosis (A549-ACE2; 0.3 µM, 72 h): 2.96% | drug-induced phospholipidosis (A549-ACE2; 0.833333 µM, 24 h): -0.34% | drug-induced phospholipidosis (A549-ACE2; 0.833333 µM, 48 h): 0.06% | drug-induced phospholipidosis (A549-ACE2; 0.833333 µM, 72 h): -0.707% | drug-induced phospholipidosis (A549-ACE2; 3.33333 µM, 24 h): 2.52% | drug-induced phospholipidosis (A549-ACE2; 3.33333 µM, 48 h): 1.52% | drug-induced phospholipidosis (A549-ACE2; 3.33333 µM, 72 h): 0.896% | drug-induced phospholipidosis (A549-ACE2; 6.66667 µM, 24 h): 0.97% | drug-induced phospholipidosis (A549-ACE2; 6.66667 µM, 48 h): 0.03% | drug-induced phospholipidosis (A549-ACE2; 6.66667 µM, 72 h): 0.278% | drug-induced phospholipidosis (A549-ACE2; 10 µM, 24 h): 8.21% | drug-induced phospholipidosis (A549-ACE2; 10 µM, 48 h): 4.18% | drug-induced phospholipidosis (A549-ACE2; 10 µM, 72 h): 0.729% | drug-induced phospholipidosis (A549-ACE2; 30 µM, 24 h): -1.1% | cell count ([11]; 0.3 µM): 96% | cell count ([11]; 3 µM): 100% | cell count ([11]; 10 µM): 78% | cell count ([11]; 30 µM): 36% | morphology score ([12]; 0.3 µM): 0.02 | morphology score ([12]; 3 µM): 0.01 | morphology score ([12]; 10 µM): -0.15 | morphology score ([12]; 30 µM): 0.3 | cell viability (Caco-2 [13]; 1 nM): 91.6% | cell viability (Caco-2 [13]; 10 nM): 97.8% | cell viability (Caco-2 [13]; 100 nM): 100% | cell viability (Caco-2 [13]; 1000 nM): 104% | cell viability (Caco-2 [13]; 10000 nM): 58.2% | cell viability (Vero E6 [14]; 1 nM): 110% | cell viability (Vero E6 [14]; 10 nM): 99.2% | cell viability (Vero E6 [14]; 100 nM): 110% | cell viability (Vero E6 [14]; 1000 nM): 103% | cell viability (Vero E6 [14]; 10000 nM): 104% | cell viability (U2OS [15]; 1 nM): 97.1% | cell viability (U2OS [15]; 10 nM): 102% | cell viability (U2OS [15]; 100 nM): 100% | cell viability (U2OS [15]; 1000 nM): 105% | cell viability (U2OS [15]; 10000 nM): 76.5% | cell viability (HepG2 [16]; 1 nM): 96.1% | cell viability (HepG2 [16]; 10 nM): 92.2% | cell viability (HepG2 [16]; 100 nM): 96.7% | cell viability (HepG2 [16]; 1000 nM): 98.2% | cell viability (HepG2 [16]; 10000 nM): 56.1% | cell viability (Calu-3 [17]; 1 nM): 90.2% | cell viability (Calu-3 [17]; 10 nM): 99.8% | cell viability (Calu-3 [17]; 100 nM): 88.3% | cell viability (Calu-3 [17]; 1000 nM): 105% | cell viability (Calu-3 [17]; 10000 nM): 68%
